Laboratory results published in the kinase profiling compilation of Christmann-Franck et al. (2016).

How the values were obtained:
Assay in all cases: KINOMEscan competition binding
FGFR2 (human) = FGFR2 (human) (UniProt P21802)
PAK6 (human) = PAK6 (human) (UniProt Q9NQU5)
TEK (human) = TEK (human) (UniProt Q02763)
PHKG1 (human) = PHKG1 (human) (UniProt Q16816)
[1] = biological target: ABL1 (human), P00519 [Q252H]
ABL1 (human) = ABL1 (human) (UniProt P00519)
[2] = biological target: ABL1 (human), P00519 [T315I]
NEK9 (human) = NEK9 (human) (UniProt Q8TD19)
EPHA6 (human) = EPHA6 (human) (UniProt Q9UF33)
LIMK1 (human) = LIMK1 (human) (UniProt P53667)
CAMK2A (human) = CAMK2A (human) (UniProt Q9UQM7)
Chain of CAMK2A (human) (Q9UQM7 whole entry, looked up): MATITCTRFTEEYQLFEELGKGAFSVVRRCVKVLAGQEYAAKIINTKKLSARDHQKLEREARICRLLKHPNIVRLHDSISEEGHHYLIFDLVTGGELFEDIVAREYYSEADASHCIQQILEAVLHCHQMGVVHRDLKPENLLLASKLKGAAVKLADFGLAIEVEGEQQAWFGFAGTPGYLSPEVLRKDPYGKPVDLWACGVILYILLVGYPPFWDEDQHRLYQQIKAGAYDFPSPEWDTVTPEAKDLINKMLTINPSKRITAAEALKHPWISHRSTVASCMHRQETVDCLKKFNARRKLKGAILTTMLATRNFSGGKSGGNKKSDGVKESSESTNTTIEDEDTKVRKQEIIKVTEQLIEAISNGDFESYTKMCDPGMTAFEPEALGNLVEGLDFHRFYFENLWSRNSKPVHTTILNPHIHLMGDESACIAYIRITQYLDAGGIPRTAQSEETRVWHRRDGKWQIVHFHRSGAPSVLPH

EPHA8 (human) = EPHA8 (human) (UniProt P29322)
Chain of EPHA8 (human) (P29322 whole entry, looked up): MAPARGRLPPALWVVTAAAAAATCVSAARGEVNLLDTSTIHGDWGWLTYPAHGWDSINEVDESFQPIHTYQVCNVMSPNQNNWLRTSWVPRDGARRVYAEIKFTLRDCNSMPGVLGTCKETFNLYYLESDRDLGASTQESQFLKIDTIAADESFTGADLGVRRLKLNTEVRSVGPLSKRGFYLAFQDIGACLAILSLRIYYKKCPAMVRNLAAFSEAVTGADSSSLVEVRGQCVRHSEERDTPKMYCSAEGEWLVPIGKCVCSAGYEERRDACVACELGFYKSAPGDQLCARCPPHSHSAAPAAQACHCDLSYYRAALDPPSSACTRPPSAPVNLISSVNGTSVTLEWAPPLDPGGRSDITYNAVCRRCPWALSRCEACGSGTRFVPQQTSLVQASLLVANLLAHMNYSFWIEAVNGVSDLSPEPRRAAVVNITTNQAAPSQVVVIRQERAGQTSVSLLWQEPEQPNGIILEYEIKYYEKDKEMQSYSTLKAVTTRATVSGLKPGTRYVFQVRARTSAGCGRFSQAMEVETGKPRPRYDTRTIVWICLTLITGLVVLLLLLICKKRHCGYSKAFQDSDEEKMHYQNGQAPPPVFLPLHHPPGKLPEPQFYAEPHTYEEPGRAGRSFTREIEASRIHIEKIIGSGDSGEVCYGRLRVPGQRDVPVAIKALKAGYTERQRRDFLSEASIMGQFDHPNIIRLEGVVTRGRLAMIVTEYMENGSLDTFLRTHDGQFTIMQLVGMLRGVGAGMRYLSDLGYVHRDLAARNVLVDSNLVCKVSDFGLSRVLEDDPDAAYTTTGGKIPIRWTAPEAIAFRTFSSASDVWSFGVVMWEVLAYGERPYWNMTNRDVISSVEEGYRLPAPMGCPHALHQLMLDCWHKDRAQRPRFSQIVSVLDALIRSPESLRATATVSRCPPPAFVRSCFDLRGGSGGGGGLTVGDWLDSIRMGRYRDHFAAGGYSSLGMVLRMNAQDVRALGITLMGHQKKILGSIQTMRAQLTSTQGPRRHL

HCK (human) = HCK (human) (UniProt P08631)
PRKACA (human) = PRKACA (human) (UniProt P17612)
FLT4 (human) = FLT4 (human) (UniProt P35916)
RPS6KA3 KD1 (human) = RPS6KA3 KD1 (human) (UniProt P51812)
PAK1 (human) = PAK1 (human) (UniProt Q13153)
BTK (human) = BTK (human) (UniProt Q06187)
ABL2 (human) = ABL2 (human) (UniProt P42684)
CAMK2D (human) = CAMK2D (human) (UniProt Q13557)
Chain of CAMK2D (human) (Q13557 whole entry, looked up): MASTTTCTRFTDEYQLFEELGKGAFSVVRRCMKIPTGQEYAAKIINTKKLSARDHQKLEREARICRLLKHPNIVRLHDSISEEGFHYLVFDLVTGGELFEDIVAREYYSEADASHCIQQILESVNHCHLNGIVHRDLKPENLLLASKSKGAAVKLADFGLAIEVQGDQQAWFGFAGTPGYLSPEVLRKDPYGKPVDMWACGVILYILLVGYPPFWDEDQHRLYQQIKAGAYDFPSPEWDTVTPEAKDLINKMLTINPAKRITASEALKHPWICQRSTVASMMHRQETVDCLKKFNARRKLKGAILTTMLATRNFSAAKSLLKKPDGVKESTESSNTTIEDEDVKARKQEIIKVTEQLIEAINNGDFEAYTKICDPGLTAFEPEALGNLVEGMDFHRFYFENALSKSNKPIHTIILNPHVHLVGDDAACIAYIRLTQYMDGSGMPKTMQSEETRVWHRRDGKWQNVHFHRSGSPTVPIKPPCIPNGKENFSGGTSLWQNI

STK10 (human) = STK10 (human) (UniProt O94804)
ERBB2 (human) = ERBB2 (human) (UniProt P04626)
Chain of ERBB2 (human) (P04626 whole entry, looked up): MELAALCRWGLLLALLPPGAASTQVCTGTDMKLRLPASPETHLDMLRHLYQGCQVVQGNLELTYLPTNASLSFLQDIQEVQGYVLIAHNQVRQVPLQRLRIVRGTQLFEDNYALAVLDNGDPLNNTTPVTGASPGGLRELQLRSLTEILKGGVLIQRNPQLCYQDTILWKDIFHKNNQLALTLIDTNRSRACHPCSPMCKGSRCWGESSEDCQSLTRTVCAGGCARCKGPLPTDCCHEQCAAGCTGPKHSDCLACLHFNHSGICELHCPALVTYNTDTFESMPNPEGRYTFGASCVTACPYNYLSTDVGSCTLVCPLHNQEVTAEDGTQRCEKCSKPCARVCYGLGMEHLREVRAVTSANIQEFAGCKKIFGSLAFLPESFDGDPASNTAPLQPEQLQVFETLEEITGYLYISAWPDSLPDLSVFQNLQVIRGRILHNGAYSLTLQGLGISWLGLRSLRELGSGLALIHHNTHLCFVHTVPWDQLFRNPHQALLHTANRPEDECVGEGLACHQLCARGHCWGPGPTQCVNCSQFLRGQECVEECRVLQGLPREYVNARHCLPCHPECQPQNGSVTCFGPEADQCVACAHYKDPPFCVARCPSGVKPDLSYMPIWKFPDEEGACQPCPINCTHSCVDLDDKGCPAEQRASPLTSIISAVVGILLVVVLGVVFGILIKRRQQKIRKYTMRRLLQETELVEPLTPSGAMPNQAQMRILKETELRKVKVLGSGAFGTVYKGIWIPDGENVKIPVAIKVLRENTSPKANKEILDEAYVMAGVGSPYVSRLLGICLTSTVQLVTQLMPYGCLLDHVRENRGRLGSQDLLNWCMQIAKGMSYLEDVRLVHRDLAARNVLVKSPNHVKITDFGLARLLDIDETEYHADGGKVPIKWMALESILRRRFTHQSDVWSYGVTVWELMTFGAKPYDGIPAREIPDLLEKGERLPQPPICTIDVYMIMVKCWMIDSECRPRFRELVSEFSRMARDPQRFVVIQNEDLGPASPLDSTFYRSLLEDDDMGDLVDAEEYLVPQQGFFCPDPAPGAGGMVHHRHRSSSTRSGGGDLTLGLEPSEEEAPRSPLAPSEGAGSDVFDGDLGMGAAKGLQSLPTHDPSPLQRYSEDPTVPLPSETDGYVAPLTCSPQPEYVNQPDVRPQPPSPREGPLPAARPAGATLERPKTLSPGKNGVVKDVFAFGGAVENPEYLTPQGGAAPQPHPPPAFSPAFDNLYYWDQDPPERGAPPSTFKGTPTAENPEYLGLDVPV

LYN (human) = LYN (human) (UniProt P07948)
PTK2 (human) = PTK2 (human) (UniProt Q05397)
MAP3K4 (human) = MAP3K4 (human) (UniProt Q9Y6R4)
FGFR1 (human) = FGFR1 (human) (UniProt P11362)
[3] = biological target: ABL1 (human), P00519 [Y253F]
FYN (human) = FYN (human) (UniProt P06241)
Chain of FYN (human) (P06241 whole entry, looked up): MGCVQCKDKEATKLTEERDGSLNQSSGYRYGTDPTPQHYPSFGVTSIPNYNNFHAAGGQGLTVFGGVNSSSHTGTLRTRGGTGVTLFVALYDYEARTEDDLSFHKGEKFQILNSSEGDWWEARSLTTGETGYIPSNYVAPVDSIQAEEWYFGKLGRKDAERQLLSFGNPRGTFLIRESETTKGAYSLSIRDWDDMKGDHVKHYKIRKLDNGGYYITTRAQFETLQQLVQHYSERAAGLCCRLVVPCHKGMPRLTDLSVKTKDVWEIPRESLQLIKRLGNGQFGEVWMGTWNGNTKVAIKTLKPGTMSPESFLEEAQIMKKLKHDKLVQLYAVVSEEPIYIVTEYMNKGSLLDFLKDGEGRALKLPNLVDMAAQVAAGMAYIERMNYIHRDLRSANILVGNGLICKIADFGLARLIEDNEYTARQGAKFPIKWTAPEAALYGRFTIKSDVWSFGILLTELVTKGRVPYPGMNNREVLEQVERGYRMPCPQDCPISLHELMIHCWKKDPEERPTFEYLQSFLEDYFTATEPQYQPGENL

FER (human) = FER (human) (UniProt P16591)
Chain of FER (human) (P16591 whole entry, looked up): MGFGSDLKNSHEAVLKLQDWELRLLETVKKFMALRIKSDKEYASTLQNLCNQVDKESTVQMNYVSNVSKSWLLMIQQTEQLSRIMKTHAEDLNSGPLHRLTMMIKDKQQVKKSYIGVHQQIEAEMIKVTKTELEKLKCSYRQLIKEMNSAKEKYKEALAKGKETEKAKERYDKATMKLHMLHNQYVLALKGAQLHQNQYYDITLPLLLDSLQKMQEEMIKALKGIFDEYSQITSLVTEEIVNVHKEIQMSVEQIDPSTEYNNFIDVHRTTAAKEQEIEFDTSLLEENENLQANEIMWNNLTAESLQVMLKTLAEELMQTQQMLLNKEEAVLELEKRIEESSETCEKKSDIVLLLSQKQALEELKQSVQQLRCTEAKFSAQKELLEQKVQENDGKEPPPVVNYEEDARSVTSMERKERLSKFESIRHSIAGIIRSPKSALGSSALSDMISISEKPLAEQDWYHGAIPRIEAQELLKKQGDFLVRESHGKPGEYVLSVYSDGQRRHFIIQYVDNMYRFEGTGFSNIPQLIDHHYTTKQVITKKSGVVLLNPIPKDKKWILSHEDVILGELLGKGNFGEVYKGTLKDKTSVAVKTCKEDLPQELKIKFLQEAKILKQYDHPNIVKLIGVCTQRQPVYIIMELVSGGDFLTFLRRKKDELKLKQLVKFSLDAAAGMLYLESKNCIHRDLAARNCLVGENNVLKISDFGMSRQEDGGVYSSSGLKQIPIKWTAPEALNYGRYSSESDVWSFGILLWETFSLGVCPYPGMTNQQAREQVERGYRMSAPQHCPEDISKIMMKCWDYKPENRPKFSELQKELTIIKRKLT

STK16 (human) = STK16 (human) (UniProt O75716)
EPHA2 (human) = EPHA2 (human) (UniProt P29317)
EPHB4 (human) = EPHB4 (human) (UniProt P54760)
PKMYT1 (human) = PKMYT1 (human) (UniProt Q99640)
STK17B (human) = STK17B (human) (UniProt O94768)
Chain of STK17B (human) (O94768 whole entry, looked up): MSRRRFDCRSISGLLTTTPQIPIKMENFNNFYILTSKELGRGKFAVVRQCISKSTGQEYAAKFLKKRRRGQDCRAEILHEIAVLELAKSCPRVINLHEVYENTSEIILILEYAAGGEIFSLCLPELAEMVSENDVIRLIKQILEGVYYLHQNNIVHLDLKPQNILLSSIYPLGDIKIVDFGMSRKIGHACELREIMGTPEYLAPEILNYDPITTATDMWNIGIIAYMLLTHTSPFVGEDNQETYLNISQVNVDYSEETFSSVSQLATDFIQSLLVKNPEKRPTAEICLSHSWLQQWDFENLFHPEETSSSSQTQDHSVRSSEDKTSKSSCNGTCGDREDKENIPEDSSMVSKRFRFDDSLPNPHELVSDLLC

[4] = biological target: JAK1 JH1 catalytic (human) (UniProt P23458)
CAMKK1 (human) = CAMKK1 (human) (UniProt Q8N5S9)
CSK (human) = CSK (human) (UniProt P41240)
INSR (human) = INSR (human) (UniProt P06213)
SRC (human) = SRC (human) (UniProt P12931)
CAMK1 (human) = CAMK1 (human) (UniProt Q14012)
CSNK1G1 (human) = CSNK1G1 (human) (UniProt Q9HCP0)
PDGFRB (human) = PDGFRB (human) (UniProt P09619)

O=C1c2ccccc2-c2n[nH]c3cccc1c23
Kd (FGFR2 (human)): 1.9 µM | Kd (PAK6 (human)): > 10 µM | Kd (TEK (human)): > 10 µM | Kd (PHKG1 (human)): > 10 µM | Kd [1]: > 10 µM | Kd (ABL1 (human)): > 10 µM | Kd [2]: > 10 µM | Kd (NEK9 (human)): > 10 µM | Kd (EPHA6 (human)): > 10 µM | Kd (LIMK1 (human)): > 10 µM | Kd (CAMK2A (human)): > 10 µM | Kd (EPHA8 (human)): > 10 µM | Kd (HCK (human)): > 10 µM | Kd (PRKACA (human)): > 10 µM | Kd (FLT4 (human)): > 10 µM | Kd (RPS6KA3 KD1 (human)): > 10 µM | Kd (PAK1 (human)): > 10 µM | Kd (BTK (human)): > 10 µM | Kd (ABL2 (human)): > 10 µM | Kd (CAMK2D (human)): > 10 µM | Kd (STK10 (human)): > 10 µM | Kd (ERBB2 (human)): > 10 µM | Kd (LYN (human)): > 10 µM | Kd (PTK2 (human)): > 10 µM | Kd (MAP3K4 (human)): > 10 µM | Kd (FGFR1 (human)): > 10 µM | Kd [3]: > 10 µM | Kd (FYN (human)): > 10 µM | Kd (FER (human)): > 10 µM | Kd (STK16 (human)): 0.51 µM | Kd (EPHA2 (human)): > 10 µM | Kd (EPHB4 (human)): > 10 µM | Kd (PKMYT1 (human)): > 10 µM | Kd (STK17B (human)): > 10 µM | Kd [4]: > 10 µM | Kd (CAMKK1 (human)): > 10 µM | Kd (CSK (human)): > 10 µM | Kd (INSR (human)): > 10 µM | Kd (SRC (human)): > 10 µM | Kd (CAMK1 (human)): > 10 µM | Kd (CSNK1G1 (human)): 3.7 µM | Kd (PDGFRB (human)): > 10 µM

Oc1ccc(-c2nc(-c3ccc(F)cc3)c(-c3ccncc3)[nH]2)cc1
Kd (FGFR2 (human)): > 10 µM | Kd (PAK6 (human)): > 10 µM | Kd (TEK (human)): > 10 µM | Kd (PHKG1 (human)): > 10 µM | Kd [1]: > 10 µM | Kd (ABL1 (human)): > 10 µM | Kd [2]: > 10 µM | Kd (NEK9 (human)): > 10 µM | Kd (EPHA6 (human)): > 10 µM | Kd (LIMK1 (human)): > 10 µM | Kd (CAMK2A (human)): > 10 µM | Kd (EPHA8 (human)): > 10 µM | Kd (HCK (human)): > 10 µM | Kd (PRKACA (human)): > 10 µM | Kd (FLT4 (human)): > 10 µM | Kd (RPS6KA3 KD1 (human)): > 10 µM | Kd (PAK1 (human)): > 10 µM | Kd (BTK (human)): > 10 µM | Kd (ABL2 (human)): > 10 µM | Kd (CAMK2D (human)): > 10 µM | Kd (STK10 (human)): > 10 µM | Kd (ERBB2 (human)): > 10 µM | Kd (LYN (human)): > 10 µM | Kd (PTK2 (human)): > 10 µM | Kd (MAP3K4 (human)): > 10 µM | Kd (FGFR1 (human)): > 10 µM | Kd [3]: > 10 µM | Kd (FYN (human)): > 10 µM | Kd (FER (human)): > 10 µM | Kd (STK16 (human)): > 10 µM | Kd (EPHA2 (human)): > 10 µM | Kd (EPHB4 (human)): > 10 µM | Kd (PKMYT1 (human)): > 10 µM | Kd (STK17B (human)): > 10 µM | Kd [4]: > 10 µM | Kd (CAMKK1 (human)): > 10 µM | Kd (CSK (human)): > 10 µM | Kd (INSR (human)): > 10 µM | Kd (SRC (human)): > 10 µM | Kd (CAMK1 (human)): > 10 µM | Kd (CSNK1G1 (human)): > 10 µM | Kd (PDGFRB (human)): > 10 µM
